Source: patent US20220213198A1, “METHOD OF TREATMENT” (The Council of the Queensland Institute of Medical Research, priority 2019, published 2022)

Legend:
MR1 on human cell lines = biological target: T1, MR1 on human cell lines (Homo sapiens, UniProt Q95460); assay: MR1 surface expression on human cell lines after ligand incubation; type: cell-based; conditions: range of human cell lines, after incubation (not shown)
T1 construct: endogenous in cells
Description: MR1 mRNA transcripts are present in different tissues and cell lines from mice and humans. […] In contrast, whether mouse tumor cell lines express MR1 has not previously been examined. […] Basally, the level of MR1 was almost undetectable on the surface of all tumor cell lines examined (FIG. 2D). […] The kinetics of MR1 upregulation on B16F10 cells was similar to what was previously reported for human C1R cells (B-cell lymphoblastoid cell line) (McWilliam et al., 2016). […] Next, the impact of up-regulation of MR1 on B16F10 or LWT1 prior to i.v injection to WT or MR1−/− mice on the number of lung metastases was assessed.

MAIT cells = assay: In vitro co-culture of purified splenic MAIT or conventional T cells with ligand-treated B16F10 cells; type: cell-based, mouse
MR1 / MAIT cells = conditions: cited from earlier work
LWT1 melanoma cells = assay: LWT1 experimental lung metastasis model; type: in vivo, mouse; conditions: day 14
Experimental: FIG. 2. Up-regulation of MR1 on B16F10 cells increases lung metastases that is dependent on MAIT cells. (A) The schematic and timeline of expanding MAIT cells from splenocytes derived from C57BL/6 WT mice with IL-2 and 5-OP-RU, for sorting and adoptive transfer into tumor-bearing mice. (B, C) Groups of WT or MR1^−/− or Rag2cγ^−/− mice (n=5-6/group) were injected i.v. with (B) 1×10^5 or (C) 1×10^4 B16F10 melanoma cells. In some groups, sorted MAIT or T conventional cells (cT) (non-MAIT αβ^+ T cells) (2×10^5 cells/mouse) from C57BL/6 (B) WT or (C) TCRδ^−/− mice were i.v. injected into the indicated groups of mice one day before tumor inoculation. (C) One group of mice received i.v injection of media alone as a control. (B, C) On day 14 relative to tumor cell inoculation, lungs were harvested and the metastatic burden was quantified by counting colonies on the lung surface. Data presented as mean±SEM. (D) B16F10 or LWT1 melanoma cells were stimulated in vitro with DMSO or 5-OP-RU (100 nM) for 4 hours before cell surface MR1 expression was determined by flow cytometry. […] Fourteen days later relative to tumor cell inoculation, lungs were harvested and the metastatic burden was quantified by counting colonies on the lung surface. […] Significant differences between groups as indicated by crossbars were determined using a one-way ANOVA followed by Tukey's post-hoc test (B, E, F), *p<0.05, **p<0.01, ****p<0.0001
FIG. 6. […] (A-D) On day 14, lungs were harvested and the metastatic burden was quantified by counting colonies on the lung surface. […] (E, F), Mice were monitored for tumor growth (calculated by the product of 2 perpendicular axes). […] Significant differences between groups as indicated by crossbars were determined by a one-way ANOVA followed by Tukey's post-hoc test (A, B) or a Mann-Whitney test (C, […]), *p<0.05, **p<0.01, ***p<0.001.
The indicated numbers of B16F10 and LWT1 cells were injected intravenously (i.v.) into the tail vein of WT or gene-targeted mice. […] Lungs were harvested on day 14, and surface tumor nodules were counted under a dissection microscope. […]

T1 sequence (Q95460 23-341): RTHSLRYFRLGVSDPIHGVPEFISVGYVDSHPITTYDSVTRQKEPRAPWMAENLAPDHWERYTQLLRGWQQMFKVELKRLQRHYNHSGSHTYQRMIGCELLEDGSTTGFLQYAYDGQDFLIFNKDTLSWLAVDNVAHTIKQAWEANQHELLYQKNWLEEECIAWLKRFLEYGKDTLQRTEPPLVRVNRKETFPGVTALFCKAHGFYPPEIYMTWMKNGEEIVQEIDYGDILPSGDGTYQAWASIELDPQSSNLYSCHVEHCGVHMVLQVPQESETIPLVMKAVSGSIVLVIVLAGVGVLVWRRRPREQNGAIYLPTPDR

| MR1 expression (MR1 on human cell lines) | Molecule | cytokine production (MAIT cells; conventional T cells with treated vs DMSO-treated B16F10) | number of treated CTV-labeled B16F10 cells (MAIT cells; following co-culture with MAIT cells) | IFNγ, IL-17A and TNF production (MAIT cells; purified splenic MAIT cells with treated vs DMSO-treated B16F10) | effect on MAIT cell activation (MR1 / MAIT cells; background statement) | number of lung metastases (LWT1 melanoma cells; MR1-/- mice i.v. injected with pre-treated LWT1, vs DMSO-treated) | number of lung metastases (LWT1 melanoma cells; WT mice i.v. injected with LWT1 pre-treated 100 nM 4 h, vs DMSO-treated) | blocking of MAIT cell interaction with MR1 (MR1 / MAIT cells; stated as known) | LWT1 lung metastases (LWT1 melanoma cells; 250 μg/mouse i.p. days -1, 0 and 3, vs cIg) |
| --- | --- | --- | --- | --- | --- | --- | --- | --- | --- |
| became upregulated | CC(=O)C=Nc1c(NC[C@H](O)[C@H](O)[C@H](O)CO)[nH]c(=O)[nH]c1=O [5-OP-RU] | no increase in cytokine production | decrease | produced more | one of the most potent stimulatory MAIT cell antigens | this increase was lost | significantly increased | – | – |
| – | 8F2.F9: anti-MR1 blocking antibody from hybridoma clone 8F2.F9, IgG1 isotype; heavy chain SEQ ID NO: 14, light chain SEQ ID NO: 18 (antibody, listed as Mus musculus, V domains shown) VH: MKFSWVIFFLMAVVTGVNSEVQLQQSVAELVRPGASVKLSCTASGFNIKNTYMHWVKKRPELGLEWIGRIDPANGNTNFAPKFQGKATITADTSSNTAYLQLSSLTSEDTAIYYCPRGSGNYYFDYWGQGTTLTVSS VL: MSSAQFLGLLLLCFQGTRCDIQMTQTTSSLSASLGDRVTISCRASQDISNYLNWYQQKPDGPVKLLIYYTSRLHSGVPSRFSGSGSGTDYSLTINNLAQEDIATYFCQQGNTLPYTFGGGTKLEIK | – | – | – | – | – | – | block MAIT cells from interacting with MR1 | significantly reduced |
